One assay deals with hSGLT-1 (Homo sapiens (Human), UniProt P13866). The experiment in a line: [14C]AMG uptake inhibition in CHO-K1/hSGLT-1 cells. Conditions: 4 μM [14C]AMG, 3-hr incubation at 37° C., read-out: SGLT-1, IC50. The class given is cell-based. From the text:
(§1) The inhibitory activity of the compounds of this invention against the SGLT-1 or SGLT-2 transporters can be determined by the following assay. The cDNAs for the human genes of SGLT-1 (SLC5A1—solute carrier family 5 sodium/glucose cotransporter member 1; Accession #NM_000343.1) or SGLT-2 (SLC5A2—member 2; Accession #NM_003041.2) were synthesized (OriGene Technologies, Inc.) and sub-cloned into the mammalian expression vector, pcDNA3.1 (Invitrogen Corp., Carlsbad, Calif.) using standard molecular biology techniques. CHO-K1 cells transfected with pcDNA3.1 (Invitrogen Corp., Carlsbad, Calif.) containing either the full-length hSGLT-1 or hSGLT-2 using Lipofectamine 2000 (Invitrogen Corp., Carlsbad, Calif.) were selected for stable incorporation of the construct by resistance to the selective pressure of Geneticin (450 μg/ml; Invitrogen Corp., Carlsbad, Calif.). Monoclonal cell lines isolated by minimal dilution were screened for uptake activity of radiolabled methyl α-D-glucopyranoside ([^14C]AMG), a non-metabolizable glucose analogue, and a single clone for each transporter was selected for maximal transporter activity to be used for evaluating the inhibitory activity of the compounds of this invention. In brief, 35,000 cells (CHO-K1/hSGLT-1 or CHO-K1/hSGLT-2) were plated per well of a black tissue culture treated 96-well plate in Ham's F12 media supplemented with 10% heat inactivated FBS and allowed to attached overnight at 37° C. and 5% CO2. Compounds were serially diluted 3-fold in DMSO generating a nine (9) data point dose response curve for each compound. Two replicates were performed per determination. The compounds were then diluted into Uptake Buffer (10 mM Hepes, 5 mM Tris, 137 mM NaCl, 5.4 mM KCl, 2.8 mM CaCl2, and 1.2 mM MgSO4, pH 7.4) with a final DMSO concentration of 0.9% (v/v). After the overnight incubation and prior to compound treatment, the cells were washed twice with Sodium Free Buffer in which the sodium chloride was replaced with 137 mM Choline Chloride, and then incubated with 4 μM [^14C]AMG in Uptake Buffer in the presence or absence of diluted compound. Following a 3-hr incubation at 37° C. and 5% CO2, the uptake reaction was stopped by washing the cells three (3) times with ice-cold D-PBS and then lysing the cells with 50 μl of Microscint-20. After 15-min, the amount of radioactivity that was incorporated into the cells was quantified using a Microbeta reader. Data were fit to an empirical four-parameter model to determine the inhibitor concentration at half-maximal response (IC50). The assay window was established by control wells incubated with [^14C]AMG in the presence or absence of sodium. A dose response curve for phlorizin was generated on every plate as a positive control.

For a further assay, the target named is hSGLT-2 (Homo sapiens (Human), UniProt P31639). As to the kind of experiment: [14C]AMG uptake inhibition in CHO-K1/hSGLT-2 cells. The class given is cell-based. The settings on record: 4 μM [14C]AMG, 3-hr incubation at 37° C., read-out: SGLT2, IC50. As to the method:
as §1, with “The cDNAs for the human genes of SGLT-1 (SLC5A1—solute carrier family 5 sodium/glucose cotransporter member 1; Accession #NM_000343.1) or SGLT-2 (SLC5A2—member 2; Accession #NM_003041.2) were synthesized (OriGene Technologies, Inc.) and sub-cloned into the mammalian expression vector, pcDNA3.1 (Invitrogen Corp., Carlsbad, Calif.) using standard molecular biology techniques.” left out, “The compounds were then diluted into Uptake Buffer (10 mM Hepes, 5 mM Tris, 137 mM NaCl, 5.4 mM KCl, 2.8 mM CaCl2, and 1.2 mM MgSO4, pH 7.4) with a final DMSO concentration of 0.9% (v/v). After the overnight incubation and prior to compound treatment, the cells were washed twice with Sodium Free Buffer in which the sodium chloride was replaced with 137 mM Choline Chloride, and then incubated with 4 μM [^14C]AMG in Uptake Buffer in the presence or absence of diluted compound.” left out, “After 15-min, the amount of radioactivity that was incorporated into the cells was quantified using a Microbeta reader.” left out

SMILES strings stand for the structures.

The term IC50 denotes the concentration at which inhibition is half-maximal.

hSGLT-1, sequence (P13866 whole entry): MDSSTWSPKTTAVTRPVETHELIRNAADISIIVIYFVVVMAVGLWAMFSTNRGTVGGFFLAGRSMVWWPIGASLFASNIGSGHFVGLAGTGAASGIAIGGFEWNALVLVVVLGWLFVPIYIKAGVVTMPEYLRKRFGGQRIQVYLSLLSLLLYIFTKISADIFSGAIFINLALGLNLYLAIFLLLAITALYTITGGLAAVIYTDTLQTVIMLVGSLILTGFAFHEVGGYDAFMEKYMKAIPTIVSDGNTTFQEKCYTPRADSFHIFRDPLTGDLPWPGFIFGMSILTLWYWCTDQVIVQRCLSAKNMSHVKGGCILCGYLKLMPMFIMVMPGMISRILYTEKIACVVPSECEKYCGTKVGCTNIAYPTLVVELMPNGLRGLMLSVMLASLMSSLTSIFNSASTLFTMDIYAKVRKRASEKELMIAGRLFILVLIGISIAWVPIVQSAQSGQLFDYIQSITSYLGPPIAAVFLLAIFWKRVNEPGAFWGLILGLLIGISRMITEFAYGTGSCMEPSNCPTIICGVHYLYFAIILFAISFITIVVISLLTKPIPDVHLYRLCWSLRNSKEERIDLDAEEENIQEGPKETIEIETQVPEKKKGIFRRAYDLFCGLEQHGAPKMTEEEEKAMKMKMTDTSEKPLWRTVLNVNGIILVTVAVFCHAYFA
hSGLT-2, sequence (P31639 whole entry): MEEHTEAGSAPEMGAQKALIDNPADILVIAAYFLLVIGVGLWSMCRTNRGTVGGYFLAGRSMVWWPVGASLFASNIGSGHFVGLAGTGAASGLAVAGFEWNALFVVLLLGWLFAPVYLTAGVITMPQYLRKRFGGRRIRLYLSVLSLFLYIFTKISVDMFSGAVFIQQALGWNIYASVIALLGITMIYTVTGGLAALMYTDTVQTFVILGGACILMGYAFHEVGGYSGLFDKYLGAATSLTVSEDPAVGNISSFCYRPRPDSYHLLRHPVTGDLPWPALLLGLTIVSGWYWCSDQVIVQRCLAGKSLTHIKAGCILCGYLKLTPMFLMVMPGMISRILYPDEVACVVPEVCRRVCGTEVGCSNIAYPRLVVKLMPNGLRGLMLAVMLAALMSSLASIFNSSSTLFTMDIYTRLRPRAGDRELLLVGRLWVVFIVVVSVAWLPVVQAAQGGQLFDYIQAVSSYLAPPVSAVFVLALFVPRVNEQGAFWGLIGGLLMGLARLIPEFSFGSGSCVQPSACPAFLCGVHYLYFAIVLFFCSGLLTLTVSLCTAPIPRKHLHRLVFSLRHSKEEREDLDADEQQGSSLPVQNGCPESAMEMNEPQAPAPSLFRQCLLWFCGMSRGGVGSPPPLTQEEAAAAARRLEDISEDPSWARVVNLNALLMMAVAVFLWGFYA

As for `CCN1C(=O)CN(c2ccc(Cc3cc([C@@H]4O[C@H](CO)[C@@H](O)[C@H](O)[C@H]4O)ccc3Cl)cc2)C1=O` [III-2, 1-(4-(2-chloro-5-((2S,3R,4R,5S,6R)-3,4,5-trihydroxy-6-(hydroxymethyl)tetrahydro-2H-pyran-2-yl)benzyl)phenyl)-3-ethylimidazolidine-2,4-dione], the figures for the IC50 at hSGLT-1 and on hSGLT-2 were 17500 nM and 11.4 nM, respectively.
With `CN1CC(=O)N(c2ccc(Cc3cc([C@@H]4O[C@H](CO)[C@@H](O)[C@H](O)[C@H]4O)ccc3Cl)cc2)C1=O` [III-3, 3-(4-(2-chloro-5-((2S,3R,4R,5S,6R)-3,4,5-trihydroxy-6-(hydroxymethyl)tetrahydro-2H-pyran-2-yl)benzyl)phenyl)-1-methylimidazolidine-2,4-dione], the IC50 stood at 83 nM at hSGLT-1 and 148 nM on hSGLT-2.
The corresponding values for `CC(C)N1C(=O)CN(c2ccc(Cc3cc([C@@H]4O[C@H](CO)[C@@H](O)[C@H](O)[C@H]4O)ccc3Cl)cc2)C1=O` [III-4, 1-(4-(2-chloro-5-((2S,3R,4R,5S,6R)-3,4,5-trihydroxy-6-(hydroxymethyl)tetrahydro-2H-pyran-2-yl)benzyl)phenyl)-3-isopropylimidazolidine-2,4-dione] are 35400 nM and 23.6 nM.
Taken in the same sequence, the figures for `CN1C(=O)N(c2ccc(Cc3cc([C@@H]4O[C@H](CO)[C@@H](O)[C@H](O)[C@H]4O)ccc3Cl)cc2)C(C)(C)C1=O` [III-5, 1-(4-(2-chloro-5-((2S,3R,4R,5S,6R)-3,4,5-trihydroxy-6-(hydroxymethyl)tetrahydro-2H-pyran-2-yl)benzyl)phenyl)-3,5,5-trimethylimidazolidine-2,4-dione] were above 90000 nM and 489 nM.

These data come from patent publication US8575114B2, “SGLT-2 inhibitors, methods of making them, and uses thereof” (Albany Molecular Research, Inc., priority 2010, dated 2013).
